# Patent US20240115557A1, “INHIBITORS OF RNA-GUIDED NUCLEASES AND USES THEREOF” (The Brigham and Women's Hospital, Inc., priority 2022, published 2024)
# Target: T1, SaCas9 (Staphylococcus aureus, UniProt J7RUA5)
# T1 sequence (J7RUA5 1-1053): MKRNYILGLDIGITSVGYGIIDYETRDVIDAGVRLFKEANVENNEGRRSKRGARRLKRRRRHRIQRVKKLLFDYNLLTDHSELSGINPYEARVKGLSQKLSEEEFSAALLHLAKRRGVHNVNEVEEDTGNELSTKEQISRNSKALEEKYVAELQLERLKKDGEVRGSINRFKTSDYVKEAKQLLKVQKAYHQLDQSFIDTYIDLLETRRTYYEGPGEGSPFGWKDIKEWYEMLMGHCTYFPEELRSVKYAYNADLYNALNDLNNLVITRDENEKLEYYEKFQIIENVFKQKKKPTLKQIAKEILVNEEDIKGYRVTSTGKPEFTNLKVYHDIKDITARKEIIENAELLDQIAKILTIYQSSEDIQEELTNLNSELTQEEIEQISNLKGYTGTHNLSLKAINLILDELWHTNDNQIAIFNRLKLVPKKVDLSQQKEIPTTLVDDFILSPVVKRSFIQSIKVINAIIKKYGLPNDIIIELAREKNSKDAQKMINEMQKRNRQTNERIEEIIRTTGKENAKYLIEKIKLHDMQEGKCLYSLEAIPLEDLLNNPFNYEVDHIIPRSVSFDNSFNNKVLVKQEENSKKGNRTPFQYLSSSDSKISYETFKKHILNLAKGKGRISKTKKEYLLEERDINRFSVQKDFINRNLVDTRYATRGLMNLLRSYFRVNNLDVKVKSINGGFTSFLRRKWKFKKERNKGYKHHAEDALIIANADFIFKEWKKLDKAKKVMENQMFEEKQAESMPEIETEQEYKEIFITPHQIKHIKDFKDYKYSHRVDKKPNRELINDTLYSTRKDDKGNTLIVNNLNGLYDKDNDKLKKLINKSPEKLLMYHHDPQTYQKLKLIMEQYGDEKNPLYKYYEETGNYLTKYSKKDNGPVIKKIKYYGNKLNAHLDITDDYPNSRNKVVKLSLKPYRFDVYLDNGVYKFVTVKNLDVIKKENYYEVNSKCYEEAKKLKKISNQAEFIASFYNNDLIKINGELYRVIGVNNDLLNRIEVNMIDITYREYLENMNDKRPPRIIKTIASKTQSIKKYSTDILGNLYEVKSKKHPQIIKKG
# Experiment: Strand displacement assay, SaCas9 primary screen
# Format: biochemical
# Conditions: for Auto Zscore Rep 1 / Auto Zscore Rep 2 / Normalized Zscore Rep 1 / Normalized Zscore Rep 2: SaCas9 primary screen; for Auto Zscore Rep 1 / Normalized Zscore Rep 1: replicate 1; for Auto Zscore Rep 2 / Normalized Zscore Rep 2: replicate 2; for Normalized Zscore Rep 1 / Normalized Zscore Rep 2: weaker potential hits; for 3 sigma Hit: flag 1 = hit at 3 sigma; for 5 sigma Hit: flag 1 = hit at 5 sigma
# Description: An overview of the screening for SaCas9 inhibitors is depicted in FIG. 14. A total of 43,168 Compounds were screened from the ICCB Libraries. Libraries screened for the initial compounds include ChemDiv 7 (34,848 cpds), Enamine 1 (5,280 cpds), ChemDiv1 (1,760 cpds), NIH Clinical Collection (450 cpds), Biomol 4—FDA Approved Library (640 cpds). A hit is determined from the Zscore, with 3-5σ being a weak hit, >5σ being a strong hit. The results of the hits include 193 Weak Hits and 249 Strong Hits. The NIH Clinical Collection 1-2014 was screened for 450 of 450 compounds, with 7 hits—1.5%. The Biomol 4—FDA Approved Library was screened for 640 of 640 compounds, with 8 hits—1.2%. […] Enamine 1 was screened for 5,280 of 6,004 compounds, with 44 hits—0.83%. Libraries are commercially available, with reference numbers utilized for compounds identifying the compound structures used. […]
# Generalization of CAA to other Cas nucleases. Applicants sought to generalize CAA to other CRISPR-associated nucleases, including from Staphylococcus aureus (SaCas9). Given the similarities between SaCas9 and SpCas9 modes of DNA-substrate binding and protein folding,^26, 27 Applicants hypothesized that SaCas9-induced strand displacement could be similarly measured. Indeed, fluorescence quenching correlated with substrate cleavage in the CAA assay with active SaCas9:gRNA and an ACGGGT PAM sequence, which was validated with gel electrophoresis (FIG. 62F,G and FIG. 69F).
# First, Applicants optimized various components and conditions of the strand displacement assay for Cas enzyme activity and generality with different Cas such as SpCas9 (FIG. 62B) or SaCas9 (FIG. 69F) or FnCas12a (FIG. 70A,B). Typically, SpCas9: gRNA (1:1.2 ratio) RNP was pre-formed at 1 μM in Cas9 assay buffer (20 mM Tris-HCl, pH=7.5, 100 mM KCl, 5 mM MgCl2) for 5 min at 4° C. before diluting to 10 nM in Cas9 assay buffer (2× final concentration). 25 μL of the Cas9 2× stock was manually dispensed to a black 384-well plate (Corning 3575) using electronic pipette. Apo SpCas9 (without guide RNA) was used at the same concentration as a control for no activity (mock inhibition). Following this, pre-annealed Alexa-Fluor 647 labeled substrate and quencher were also diluted to 1 nM and 5 nM in Cas9 assay buffer, respectively (2× stock solution). Next, 25 μL of the substrate/quencher solution was added manually to each well of the Cas9-containing 384-well plates using an electronic pipette and was incubated at 37° C. for 2.5 h. Fluorescent signals were read with the microplate reader set to read Alexa-Fluor 647 fluorescence. Assay was performed similarly with SaCas9 and FnCas12a using the respective enzyme, gRNA, substrate, and quencher oligos. Applicants similarly divulged the effect of PAM sequences of dsDNA on its assay specificity using TGG, TGC, AAC PAM containing substrates for SpCas9 (FIG. 62C), and ACGGGT, ACGGTT, TGCCCA PAM substrate for SaCas9 (FIG. 62F) and TTTC, TTGC, AAAG PAM substrates for FnCpf1 (FIG. 63B-C). Applicants also optimized the effective concentration of DS-AF647 and SS-AF647 fluorophores (FIG. 64A), DS-substrate to SpCas9 RNP ratio (FIG. 64B) and substrate to quencher ratio (FIG. 64C) on assay performance. Similarly, Applicants performed a time course experiment to establish the time required for maximum completion of the reaction at various substrate to SpCas9 RNP ratios (FIG. 64D).
SMILES,Auto Zscore Rep 1,Auto Zscore Rep 2,Normalized Zscore Rep 1,Normalized Zscore Rep 2,3 sigma Hit,5 sigma Hit
O=C1CC(c2ccc(O)c(O)c2)c2c(nc(SCc3cccc(Cl)c3)[nH]c2=O)N1 (centres unmarked) [Cpd D271-0012],0.2548,0.7649,0.1908,0.1893,1,1
O=C1CC(c2ccc(O)c(O)c2)c2c(nc(SCc3ccccc3)[nH]c2=O)N1 (centres unmarked) [Cpd D271-0007],−1.4647,−0.1946,0.1942,0.18,1,1
CCSc1nc2c(c(=O)[nH]1)C(c1ccc(O)c(O)c1)CC(=O)N2 (centres unmarked) [Cpd D271-0002],−0.5592,0.1026,0.2655,0.3207,1,1
O=C1CC(c2ccc(O)c(O)c2)c2c(nc(SCc3ccc(Cl)cc3)[nH]c2=O)N1 (centres unmarked) [Cpd D271-0011],−2.7,−0.04169,0.1797,0.2066,1,1
Cc1ccc(C)c(SCC(=O)NC(C)C(c2ccccc2)N2CCOCC2)c1 (centres unmarked) [Cpd T0507-0044],1.662,−1.14,0.2923,0.2417,1,1
O=C(CSc1ccc2ccccc2c1)N1CCN(c2ccc(O)cc2)CC1 [Cpd T0508-7813],−2.33,−1.326,0.1931,0.165,1,–
c1ccc(-c2nnc3sc(-c4ccncc4)nn23)nc1 [Cpd D727-0542],−0.3775,1.249,0.1921,0.2295,1,1
CC1(C(=O)NC2CCCCC2)Cn2c(cc3ccccc32)C(=O)N1c1ccc2c(c1)OCCO2 (centres unmarked) [Cpd E234-0056],1.418,1.057,0.2592,0.1597,1,–
O=C(CSc1ccc2ccccc2c1)NCCc1ccc(O)c(O)c1 [Cpd T0509-3636],0.8861,0.3048,0.4351,0.3562,1,1
COc1ccc(-c2nc(N)s[n+]2-c2ccccc2)cc1 [Cpd T0501-2049],0.5613,0.7691,0.6053,0.6033,1,1
CC1CCC(NC(=O)C2(C)Cn3c(cc4occc43)C(=O)N2CCN(C)C2CCCCC2)CC1 (centres unmarked) [Cpd E218-0425],−0.4666,0.1007,0.2235,0.1821,1,–

# Next, values leading:
Auto Zscore Rep 1,Auto Zscore Rep 2,Normalized Zscore Rep 1,Normalized Zscore Rep 2,3 sigma Hit,5 sigma Hit,SMILES
−0.7997,−0.2997,0.2452,0.1681,1,1,O=C(O)c1cc(NS(=O)(=O)N2CCOCC2)ccc1N1CCCC(CN2CCCC2)C1 (centres unmarked) [Cpd F294-1002]
0.01198,0.247,0.1769,0.155,1,–,CCN(Cc1ccccc1)c1ccc(NS(C)(=O)=O)cc1C(=O)O [Cpd F294-0009]
−1.138,−1.139,0.2186,0.1863,1,–,CCN(Cc1ccccc1)c1ccc(NS(=O)(=O)c2ccccc2)cc1C(=O)O [Cpd F294-0004]
0.1547,−0.2374,0.1815,0.1895,1,–,CCCCN(CC)c1ncc(NS(C)(=O)=O)cc1C(=O)O [Cpd F293-0529]
−0.06844,0.2074,0.342,0.3107,1,1,Cc1nnc(NC(=O)CSc2ccc3nnc(-c4cccc(F)c4)n3n2)s1 [Cpd C742-0431]
0.3653,−0.5622,0.1731,0.1458,1,–,CN1C(C(=O)Nc2sc3c(c2C(N)=O)CCCC3)=CC(c2ccc(F)cc2)=NS1(=O)=O [Cpd E135-0568]
0.0101,0.4839,0.1526,0.1495,1,1,CCOC(=O)c1c(NC(=O)CSc2nnc3cc(C)c4cccc(OC)c4n23)sc(C)c1C [Cpd D278-0687]
2.553,2.947,0.2358,0.2376,1,1,CN(C)c1ncc(NS(=O)(=O)c2cc(F)ccc2F)cc1C(=O)O [Cpd F293-0814]
1.794,2.846,0.4509,0.429,1,1,Cc1cc(C)c(S(=O)(=O)Nc2cnc(N3CCCC3)c(C(=O)O)c2)cc1C [Cpd F293-0458]
1.978,2.223,0.2792,0.3121,1,1,CCS(=O)(=O)Nc1cnc(N(CC(C)C)CC(C)C)c(C(=O)O)c1 [Cpd F293-0563]
